Measured values reported in patent publication US20100286193A1, “Novel Azabicyclo[3.2.1]Oct-2-Ene Derivatives and Their Use as Monoamine Neurotransmitter Re-Uptake Inhibitors” (priority 2005, published 2010).
Where a name gives a salt, the structure may show the parent alone.

Columns and labels:
[1] = target: T1, serotonine (5-HT) reuptake in synaptosomes (Rattus norvegicus, UniProt P31652); assay: Inhibition of serotonin reuptake in synaptosomes; assay type: biochemical; conditions: 3H-5-HT, as described in WO 97/16451, read-out: 5-HT-uptake IC50
T1 construct: in synaptosomes as described in WO 97/16451; from tissue

[2] = target: T2, noradrenaline (NA) reuptake in synaptosomes (Rattus norvegicus, UniProt Q63380); assay: Inhibition of noradrenaline reuptake in synaptosomes; assay type: biochemical; conditions: 3H-NA, as described in WO 97/16451, read-out: NA-uptake IC50
T2 construct: in synaptosomes as described in WO 97/16451; from tissue

[3] = target: T3, dopamine (DA) reuptake in synaptosomes (Rattus norvegicus, UniProt P23977); assay: Inhibition of dopamine reuptake in synaptosomes; assay type: biochemical; conditions: 3H-DA, as described in WO 97/16451, read-out: DA-uptake IC50
T3 construct: in synaptosomes as described in WO 97/16451; from tissue
T3 sequence (P23977 whole entry): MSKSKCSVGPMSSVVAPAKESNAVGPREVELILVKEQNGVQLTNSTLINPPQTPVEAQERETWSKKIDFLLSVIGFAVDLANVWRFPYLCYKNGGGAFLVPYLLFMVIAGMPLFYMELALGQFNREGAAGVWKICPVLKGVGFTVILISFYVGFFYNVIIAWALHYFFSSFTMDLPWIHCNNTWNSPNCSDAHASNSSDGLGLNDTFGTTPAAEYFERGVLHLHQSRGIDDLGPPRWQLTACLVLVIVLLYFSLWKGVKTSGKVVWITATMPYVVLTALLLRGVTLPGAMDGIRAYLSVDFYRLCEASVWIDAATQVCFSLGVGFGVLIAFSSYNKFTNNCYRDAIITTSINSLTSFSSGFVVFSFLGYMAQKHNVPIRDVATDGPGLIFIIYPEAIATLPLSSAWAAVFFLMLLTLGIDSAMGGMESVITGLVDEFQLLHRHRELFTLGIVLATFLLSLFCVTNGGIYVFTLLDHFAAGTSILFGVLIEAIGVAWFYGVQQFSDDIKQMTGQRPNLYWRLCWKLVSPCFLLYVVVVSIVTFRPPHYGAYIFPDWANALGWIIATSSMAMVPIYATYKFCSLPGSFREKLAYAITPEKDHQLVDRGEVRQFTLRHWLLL

T1 sequence (P31652 whole entry): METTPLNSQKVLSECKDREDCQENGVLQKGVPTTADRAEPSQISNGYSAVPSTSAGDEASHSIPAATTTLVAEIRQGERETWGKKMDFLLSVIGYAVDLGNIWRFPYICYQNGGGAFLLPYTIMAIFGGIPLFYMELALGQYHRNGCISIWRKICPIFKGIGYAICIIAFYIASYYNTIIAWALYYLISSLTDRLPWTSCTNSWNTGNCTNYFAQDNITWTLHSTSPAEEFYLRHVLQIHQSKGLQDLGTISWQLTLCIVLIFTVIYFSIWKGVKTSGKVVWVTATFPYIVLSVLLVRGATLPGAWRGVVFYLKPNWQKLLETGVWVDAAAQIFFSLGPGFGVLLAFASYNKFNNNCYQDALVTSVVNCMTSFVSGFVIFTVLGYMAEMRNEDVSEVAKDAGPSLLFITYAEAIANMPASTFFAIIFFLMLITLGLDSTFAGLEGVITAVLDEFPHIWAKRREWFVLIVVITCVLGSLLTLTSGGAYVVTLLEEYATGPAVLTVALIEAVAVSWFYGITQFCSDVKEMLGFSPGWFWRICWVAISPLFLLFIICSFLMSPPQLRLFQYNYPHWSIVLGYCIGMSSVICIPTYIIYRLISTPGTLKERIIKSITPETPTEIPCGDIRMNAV
T2 sequence (Q63380 1-617): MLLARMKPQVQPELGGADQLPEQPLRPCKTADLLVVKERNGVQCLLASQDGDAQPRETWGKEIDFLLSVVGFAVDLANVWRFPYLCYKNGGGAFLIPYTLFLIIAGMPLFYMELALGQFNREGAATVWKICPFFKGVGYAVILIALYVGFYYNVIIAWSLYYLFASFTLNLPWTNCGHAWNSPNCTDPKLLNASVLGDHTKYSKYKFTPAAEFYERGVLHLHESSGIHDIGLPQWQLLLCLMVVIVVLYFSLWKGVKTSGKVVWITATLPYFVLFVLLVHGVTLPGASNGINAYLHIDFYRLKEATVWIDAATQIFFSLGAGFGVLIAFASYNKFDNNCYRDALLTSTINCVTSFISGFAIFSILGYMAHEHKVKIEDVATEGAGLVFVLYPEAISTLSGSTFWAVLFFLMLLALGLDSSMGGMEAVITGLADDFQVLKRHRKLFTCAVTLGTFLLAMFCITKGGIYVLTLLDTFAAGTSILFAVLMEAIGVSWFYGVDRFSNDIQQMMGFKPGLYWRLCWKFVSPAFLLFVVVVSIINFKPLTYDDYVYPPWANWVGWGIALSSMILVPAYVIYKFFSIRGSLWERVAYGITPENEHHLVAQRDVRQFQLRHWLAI

SMILES	melting point [°C]	IC50 [1] [nM]	IC50 [2] [nM]	IC50 [3] [nM]
Cc1cc(C2=CC3CCC(C2)N3)ccc1Cl (single isomer, unassigned; (+)) (as salt: tartaric acid salt) [(+)-3-(4-Chloro-3-methylphenyl)-8-H-8-azabicyclo[3.2.1]oct-2-ene D-tartaric acid salt]	164 to 177			
Cc1ccc(C2=CC3CCC(C2)N3)cc1Cl (single isomer, unassigned; (-)) (as salt: tartaric acid salt) [(−)-3-(3-Chloro-4-methylphenyl)-8-H-8-azabicyclo[3.2.1]oct-2-ene L-tartaric acid salt]	156.3 to 161.5			
Cc1ccc(C2=CC3CCC(C2)N3)cc1Br (racemic) [(±)-3-(3-Bromo-4-methylphenyl)-8-H-8-azabicyclo[3.2.1]oct-2-ene hydrochloric acid salt]		1.4	15	13
Cc1cc(C2=CC3CCC(C2)N3)ccc1Cl (single isomer, unassigned; (+)) [(+)-3-(4-Chloro-3-methylphenyl)-8-H-8-azabicyclo[3.2.1]oct-2-ene D-tartaric acid salt]		2.3	8.2	110
Cc1ccc(C2=CC3CCC(C2)N3)cc1Cl (single isomer, unassigned; (-)) [(−)-3-(3-Chloro-4-methylphenyl)-8-H-8-azabicyclo[3.2.1]oct-2-ene L-tartaric acid salt]		1.8	6.8	140
